Reference: publication PMC9226124, “Macrocycle-stabilization of its interaction with 14-3-3 increases plasma membrane localization and activity of CFTR” (Nature Communications, 2022)

Biological target: T1, FITC-labeled CFTRpS753pS768 peptide (no 14-3-3) (Homo sapiens, UniProt P13569)
T1 construct: made in house; host or cells: synthetic peptide
Test: Dose-response FP control assay in the absence of 14-3-3
Assay type: binding
Conditions: No 14-3-3
Experimental: The 14-3-3β concentration used for the FP screening assay was 10 μM (dashed line). c HTS FP assay of the Cyclenium library. The samples contain 100 nM of FITC-CFTR_pS753pS768 peptide, 10 μM 14-3-3β, and 50 μM compound. FC-A (100 µM) was added as a positive control and DMSO as the negative control. Hit compounds are defined as a polarization increase which is higher than 20% of the response of FC-A. Red squares are compounds that appeared positive in the negative control without 14-3-3. […] Background polarization was subtracted from all values, n = 3 technical replicates. Compounds selected for further analysis are indicated with an asterisk. e Polarization in the absence of 14-3-3. […] Source data are provided as a Source Data file.
The FITC-labeled peptides were dissolved in FP buffer (10 mM HEPES pH 7.4, 150 mM NaCl, 0.1% Tween20, 1 mg/mL BSA) to a final concentration of 100 nM or 10 nM. For the dose-response assays, a 14-3-3β concentration of 10 μM was used while titrating the compounds in a two-times dilution series and, for the other assays, a dilution series of 14-3-3β was made with constant concentration of compound. The dilution series were made in 384 Corning Black Round Bottom well plates and their polarization was measured with a Tecan Infinite F500 plate reader (ex. = 485 nm, em. = 535 nm). The method of fitting of the curves was: “log(agonist) vs. response – Variable slope (four parameters)” from GraphPad Prism. The equation is Y = Bottom + (Top-Bottom)/(1 + 10^((LogEC50-X)*HillSlope)).

T1 sequence (P13569 747-774 limits assumed): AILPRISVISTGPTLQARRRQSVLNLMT

`N=C(N)NCCCC1NC(=O)C(CCCCN)NCc2ccccc2Sc2ccccc2CNC(=O)C(Cc2ccc(O)cc2)NC1=O` (stereo not shown) [CY001951] gave an FP signal (compound 476.8 pM) of 3, an FP signal (compound 953.7 pM) of 3 and an FP signal (compound 1.90735e-9 M) of 4. For the same compound, the FP signal (compound 3.8147e-9 M) was 4, the FP signal (compound 7.6294e-9 M) was 3 and the FP signal (compound 1.52588e-8 M) was 5. For the same compound, the FP signal (compound 3.05176e-8 M) was 4, the FP signal (compound 6.10352e-8 M) was 5 and the FP signal (compound 1.2207e-7 M) was 4. It also gave an FP signal (compound 2.44141e-7 M) of 4, an FP signal (compound 4.88281e-7 M) of 5 and an FP signal (compound 9.76563e-7 M) of 6. The FP signal (compound 1.95313e-6 M) was 6, the FP signal (compound 3.90625e-6 M) was 6 and the FP signal (compound 7.8125e-6 M) was 7. It also gave an FP signal (compound 1.5625e-5 M) of 9, an FP signal (compound 3.125e-5 M) of 16 and an FP signal (compound 6.25e-5 M) of 33. The FP signal (compound 0.000125 M) was 73, the FP signal (compound 0.00025 M) was 143 and the FP signal (compound 0.0005 M) was 201. For the same compound, the FP signal (compound 0.001 M) was 252.

`NCCCCC1NCc2ccccc2Sc2ccccc2CNC(=O)C(Cc2cccc(Cl)c2)NC(=O)C(Cc2ccc(O)cc2)NC1=O` (stereo not shown) [CY007288] showed an FP signal (compound 476.8 pM) of 6, an FP signal (compound 953.7 pM) of 6 and an FP signal (compound 1.90735e-9 M) of 5. It also gave an FP signal (compound 3.8147e-9 M) of 4, an FP signal (compound 7.6294e-9 M) of 7 and an FP signal (compound 1.52588e-8 M) of 6. It also gave an FP signal (compound 3.05176e-8 M) of 5, an FP signal (compound 6.10352e-8 M) of 4 and an FP signal (compound 1.2207e-7 M) of 4. For the same compound, the FP signal (compound 2.44141e-7 M) was 5, the FP signal (compound 4.88281e-7 M) was 6 and the FP signal (compound 9.76563e-7 M) was 6. The FP signal (compound 1.95313e-6 M) was 5, the FP signal (compound 3.90625e-6 M) was 8 and the FP signal (compound 7.8125e-6 M) was 9. For the same compound, the FP signal (compound 1.5625e-5 M) was 16, the FP signal (compound 3.125e-5 M) was 30 and the FP signal (compound 6.25e-5 M) was 55. For the same compound, the FP signal (compound 0.000125 M) was 97, the FP signal (compound 0.00025 M) was 149 and the FP signal (compound 0.0005 M) was 194. The FP signal (compound 0.001 M) was 224.

In the case of `NCCCC1NCc2ccccc2Sc2ccccc2CNC(=O)C(Cc2c[nH]c3ccccc23)NC(=O)C(Cc2ccccc2)NC1=O` (stereo not shown) [CY007345], the FP signal (compound 476.8 pM) is reported as 5, the FP signal (compound 953.7 pM) is reported as 5 and the FP signal (compound 1.90735e-9 M) is reported as 4. It also gave an FP signal (compound 3.8147e-9 M) of 7, an FP signal (compound 7.6294e-9 M) of 5 and an FP signal (compound 1.52588e-8 M) of 4. The FP signal (compound 3.05176e-8 M) was 4, the FP signal (compound 6.10352e-8 M) was 7 and the FP signal (compound 1.2207e-7 M) was 6. It also gave an FP signal (compound 2.44141e-7 M) of 5, an FP signal (compound 4.88281e-7 M) of 6 and an FP signal (compound 9.76563e-7 M) of 7. It also gave an FP signal (compound 1.95313e-6 M) of 8, an FP signal (compound 3.90625e-6 M) of 14 and an FP signal (compound 7.8125e-6 M) of 28. It also gave an FP signal (compound 1.5625e-5 M) of 52, an FP signal (compound 3.125e-5 M) of 90 and an FP signal (compound 6.25e-5 M) of 137. The FP signal (compound 0.000125 M) was 191, the FP signal (compound 0.00025 M) was 224 and the FP signal (compound 0.0005 M) was 238. It also gave an FP signal (compound 0.001 M) of 248.

`N=C(N)NCCCC1NC(=O)C(CCC(N)=O)NC(=O)C(CCCNC(=N)N)NC(=O)C2CCCN2Cc2cccc(c2)-c2ccccc2CNC1=O` (stereo not shown) [CY007455] showed an FP signal (compound 476.8 pM) of 5, an FP signal (compound 953.7 pM) of 6 and an FP signal (compound 1.90735e-9 M) of 3. For the same compound, the FP signal (compound 3.8147e-9 M) was 4, the FP signal (compound 7.6294e-9 M) was 5 and the FP signal (compound 1.52588e-8 M) was 4. It also gave an FP signal (compound 3.05176e-8 M) of 4, an FP signal (compound 6.10352e-8 M) of 5 and an FP signal (compound 1.2207e-7 M) of 7. It also gave an FP signal (compound 2.44141e-7 M) of 6, an FP signal (compound 4.88281e-7 M) of 4 and an FP signal (compound 9.76563e-7 M) of 4. The FP signal (compound 1.95313e-6 M) was 5, the FP signal (compound 3.90625e-6 M) was 9 and the FP signal (compound 7.8125e-6 M) was 8. It also gave an FP signal (compound 1.5625e-5 M) of 15, an FP signal (compound 3.125e-5 M) of 26 and an FP signal (compound 6.25e-5 M) of 53. For the same compound, the FP signal (compound 0.000125 M) was 107, the FP signal (compound 0.00025 M) was 170 and the FP signal (compound 0.0005 M) was 209. The FP signal (compound 0.001 M) was 244.

`N=C(N)NCCCC1NC(=O)C(CCC(N)=O)NC(=O)C(CCCNC(=N)N)NC(=O)C2CCCN2Cc2cccc(c2)-c2ccccc2CNC1=O` (stereo not shown) [CY007458] was tested, and the FP signal (compound 476.8 pM) was 6, the FP signal (compound 953.7 pM) was 5 and the FP signal (compound 1.90735e-9 M) was 4. The FP signal (compound 3.8147e-9 M) was 5, the FP signal (compound 7.6294e-9 M) was 7 and the FP signal (compound 1.52588e-8 M) was 4. It also gave an FP signal (compound 3.05176e-8 M) of 6, an FP signal (compound 6.10352e-8 M) of 5 and an FP signal (compound 1.2207e-7 M) of 4. For the same compound, the FP signal (compound 2.44141e-7 M) was 5, the FP signal (compound 4.88281e-7 M) was 6 and the FP signal (compound 9.76563e-7 M) was 6. The FP signal (compound 1.95313e-6 M) was 5, the FP signal (compound 3.90625e-6 M) was 8 and the FP signal (compound 7.8125e-6 M) was 11. The FP signal (compound 1.5625e-5 M) was 15, the FP signal (compound 3.125e-5 M) was 33 and the FP signal (compound 6.25e-5 M) was 65. For the same compound, the FP signal (compound 0.000125 M) was 124, the FP signal (compound 0.00025 M) was 179 and the FP signal (compound 0.0005 M) was 221. For the same compound, the FP signal (compound 0.001 M) was 252.

Compound `N=C(N)NCCCC1NC(=O)C(CCC(N)=O)NC(=O)C(CCCNC(=N)N)NC(=O)C2Cc3ccccc3CN2Cc2cccc(c2)-c2ccccc2CNC1=O` (stereo not shown) [CY007493] has an FP signal (compound 324.2 pM) of 2, an FP signal (compound 648.5 pM) of 1 and an FP signal (compound 1.297e-9 M) of 2. For the same compound, the FP signal (compound 2.59399e-9 M) was 3, the FP signal (compound 5.18799e-9 M) was 3 and the FP signal (compound 1.0376e-8 M) was 3. It also gave an FP signal (compound 2.0752e-8 M) of 3, an FP signal (compound 4.15039e-8 M) of 3 and an FP signal (compound 8.30078e-8 M) of 2. It also gave an FP signal (compound 1.66016e-7 M) of 5, an FP signal (compound 3.32031e-7 M) of 4 and an FP signal (compound 6.64062e-7 M) of 3. For the same compound, the FP signal (compound 1.32813e-6 M) was 4, the FP signal (compound 2.65625e-6 M) was 5 and the FP signal (compound 5.3125e-6 M) was 6. The FP signal (compound 1.0625e-5 M) was 4, the FP signal (compound 2.125e-5 M) was 10 and the FP signal (compound 4.25e-5 M) was 18. It also gave an FP signal (compound 8.5e-5 M) of 37, an FP signal (compound 0.00034 M) of 117 and an FP signal (compound 0.00068 M) of 184. It also gave an FP signal (compound […]) of 71.

`N=C(N)NCCCC1NC(=O)C(CCC(N)=O)NC(=O)C(CCCNC(=N)N)NC(=O)C2CCCN2Cc2ccccc2Sc2ccccc2CNC1=O` (stereo not shown) [CY007502] was tested, and the FP signal (compound 453 pM) was 1, the FP signal (compound 906 pM) was 2 and the FP signal (compound 1.81198e-9 M) was 2. The FP signal (compound 3.62396e-9 M) was 3, the FP signal (compound 7.24792e-9 M) was 3 and the FP signal (compound 1.44958e-8 M) was 1. The FP signal (compound 2.89917e-8 M) was 3, the FP signal (compound 5.79834e-8 M) was 4 and the FP signal (compound 1.15967e-7 M) was 3. It also gave an FP signal (compound 2.31934e-7 M) of 4, an FP signal (compound 4.63867e-7 M) of 6 and an FP signal (compound 9.27734e-7 M) of 3. For the same compound, the FP signal (compound 1.85547e-6 M) was 3, the FP signal (compound 3.71094e-6 M) was 4 and the FP signal (compound 7.42187e-6 M) was 6. The FP signal (compound 1.48437e-5 M) was 6, the FP signal (compound 2.96875e-5 M) was 6 and the FP signal (compound 5.9375e-5 M) was 26. It also gave an FP signal (compound 0.00011875 M) of 67, an FP signal (compound 0.0002375 M) of 127 and an FP signal (compound 0.000475 M) of 188. It also gave an FP signal (compound 0.00095 M) of 241.
